Entries after “also recorded” stand apart in the source; their conditions may differ.
System: ΔF508-CFTR (C127-ΔF508-low cells)
Assay: SPQ halide efflux assay, cAMP-stimulated Cl- channel activity, C127-ΔF508-low cells
Assay type: cell-based
Description: The cAMP-dependent CFTR Cl^- channel activity was assessed using the halide-sensitive fluorophore 6-methoxy-N-(3-sulfopropyl)-quinolinium (SPQ) essentially as described previously (Cheng et al., (1995), supra.; Marshall et al., supra.). Briefly, the cells were treated with different amounts of DSG for the times specified. At the end of the treatment period, the cells were loaded with SPQ by hypotonic shock for 4 min at room temperature. SPQ fluorescence initially was quenched by incubating the cells for up to 30 min in a NaI buffer (135 mM NaI, 2.4 mM K2 HPO4, 0.6 mM KH2 PO4, 1 mM MgSO4, 1 mM CaSO4, 10 mM dextrose, and 10 mM N-2 hydroxyethylpiperazine-N'2-ethanesulfonic acid, pH 7.4). After measuring the baseline fluorescence (Fo) for 2 min., the NaI solution was replaced with one containing 135 mM NaNO3, and fluorescence was measured for another 16 min. Forskolin (20 μM) and 3-isobutyl-1-methyl-xanthine (IBMX) (100 μM) were added 5 min after the anion substitution to increase intracellular levels of cAMP.
An increase in halide permeability is reflected by a more rapid increase in SPQ fluorescence. It is the rate of change rather than the absolute change in signal that is the important variable in evaluating anion permeability. Differences in absolute levels reflect quantitative differences between groups in SPQ loading, size of cells, or number of cells studied. The data are presented as means± SE of fluorescence at time t (Ft) minus the baseline fluorescence (Fo, the average fluorescence measured in the presence of I^- for 2 min. before ion substitution) and are representative of results obtained under each condition.
For each experiment, between 50 to 100 cells were examined on a given day and studies under each condition were repeated on at least two days. For each experiment, the responses were compared with those obtained with control or untreated cells. […] Under the conditions specified above, control cells were unresponsive to added cAMP agonists. There was a broad spectrum in the rate of change in SPQ fluorescence observed with responsive cells. Normally, cells were scored as responsive if they generated a minimum of a […] change in the rate of increase in SPQ fluorescence following stimulation with cAMP agonists. Because the response was heterogenous, the data shown are for the 10% of cells in each experiment showing the greatest response.
A bovine-papilloma virus based eukaryotic expression vector (pBPV-CFTR-ΔF508) containing the gene for ΔF508 CFTR and neomycin resistance were transfected into C127 cells. The C127 cells are murine mammary cells which were obtained from ATCC (#CRL 1616). The expression of the mutant ΔF508 protein and neomycin was driven using a metallothionein promoter. Following transfection, clonal cells resistant to G418 were isolated and cells expressing the mutant ΔF508 protein were subsequently identified using antibodies specific for CFTR (mAb-13-1). The cells expressing the mutant ΔF508 CFTR protein were maintained in Dulbecco's modified eagle media (DMEM) supplemented with glutamine and fetal calf serum.
C127-ΔF508-low (mouse mammary tumor) is a recombinant cell line stably transfected with the cDNA encoding the mutant ΔF508-CFTR (Cheng et al. (1995), supra.; Marshall et al. (1994), J. Biol. Chem. 269: 2987-2995). […] C127-mock is a cell line that has been stably transfected with the backbone of the expression vector used to generate C127-ΔF508-low (Cheng et al. (1995), supra.). LLCPK1 -ΔF508 (pig kidney epithelial) is a recombinant cell line stably expressing low levels of the mutant ΔF508-CFTR protein (Marshall et al., supra.). The details of the generation, characterization and routine propagation of these cell lines has been described (Cheng et al. (1995), supra.; Marshall et al., supra.).
Cells were treated with up to 100 μg/ml of DSG for up to 72 h. Concentrations of DSG >50 μg/ml were toxic to most of the cell types tested. […]

Structure (SMILES): N=C(N)NCCCCCCC(=O)NC(O)C(=O)NCCCCNCCCN (stereo not drawn) [DSG, deoxyspergualin]
- response in mock transfected cells (C127-mock cells, DSG treated): No response was observed
- cells generating a measurable response (C127-ΔF508-low cells, SPQ, average of 5 experiments): Approximately 17%
- cAMP-stimulated change in SPQ fluorescence / Cl- channel activity, in words (C127-ΔF508-low cells, DSG 10-100 μg/ml, sodium butyrate 5 mM 24 h, spermidine 5 μg/ml 72 h): marginal; also recorded: resulted in the appearance of functional cAMP-stimulated CFTR Cl^- channel activity at the cell surface; also recorded: gave a rapid change in fluorescence following stimulation with forskolin; also recorded: More optimal responses were observed in cells that were treated with lower concentrations of DSG compared to higher concentrations of DSG; also recorded: restored cAMP-stimulated anion efflux albeit to a lesser extent than was observed with sodium butyrate treatment; also recorded: less than that obtained with sodium butyrate

— patent US5985824A, “Methods and compositions for treating cystic fibrosis” (priority 1997, dated 1999)
